Data published in patent publication US20160228434A1, “TREATMENT OF DISEASES CAUSED BY ABNORMAL LYMPHOCYTE FUNCTION WITH AN HDAC6 INHIBITOR” (priority 2013, published 2016).
“Also recorded” adds a separate entry of the source.

Legend:
Assay type in all cases: in vivo
[1] = system: bone marrow pro-B cell (B220+CD43+) and pre-B cell (B220+CD43-) populations; assay: Bone marrow pro- and pre-B cell differentiation by flow cytometry in treated NZB/W mice
Text: Bone marrow cells were flushed in PBS with 1% BSA from the femurs of NZB/W mice following euthanization. Red blood cells (RBCs) were lysed using ammonium chloride potassium (ACK) lysing solution. Single-cell suspensions were then washed and stained with Allo-Phycocyanin (APC)-conjugated […] and Flourescein Isothiocyanate (FITC)-conjugated CD43 anti-mouse mAbs to identify pro-B cell (B220^+ CD43^+) and pre-B cell (B220^+ CD43^−) populations. Pro-B cell populations were further stained with Phycoerythirn (PE)-conjugated BP1 and PECy5 or Peridinin-chlorophyll proteins (PerCP)-conjugated CD24 anti-mouse mAbs to identify fractions A (B220^+ CD43^+ CD24^− BP1^−), B (B220^+ CD43^+ CD24^+ BP1^−), C (B220^+ CD43^+ CD24^lo BP1), and C′ (B220^+ CD43^+ CD24^hi BP1^+). Pre-B cells fractions were further stained with PE-conjugated IgD, and PECy5-conjugated IgM anti-mouse mAbs to identify fractions D (B220^+ CD43^− IgM^− IgD^−), E (B220^+ CD43^− IgM^+ IgD^−) and F (B220^+ CD43^− IgM^+ IgD^+). Fractions were measured by flow cytometric analysis. All antibodies were purchased from eBioscience (San Diego, Calif., USA). Flow cytometry was performed at that College of Veterinary Medicine Flow Cytometry Core Facility using a FACScan flow cytometer (Becton Dickinson, Franklin Lakes, N.J., USA). Flow cytometry data was analyzed using FlowJo Software (Tree Star, Ashland, Oreg., USA).
(§1) NZB/W mice were injected intraperitoneally 5 days/week with the vehicle control (DMSO), ACY-738 treatment at 5 mg/kg (low-dose), or ACY-738 treatment at 20 mg/kg (high-dose) beginning at 22-weeks-of-age until euthanization at 38 weeks-of-age. ACY-738 was received from Acetylon Pharmaceuticals for use in all studies. Proteinuria and weight were measured every 2 weeks and blood was collected every four weeks for sera analysis. Proteinuria was measured by a standard semi-quantitative test using Siemens Uristix dipsticks (Siemens Healthcare, Deerfield, Ill., USA). Results were quantified according to the manufacturer's instructions and scored as follows: dipstick reading of 0 mg/dL=0, trace=1, 30-100 mg/dL=2, 100-300 mg/dL=3, 300-2000 mg/dL=4, and 2000+ mg/dL=5.
Following treatment with ACY-738, harvested bone marrow cells were stained with B220 and CD43 and the percentage of pro- and pre-B cells was determined using flow cytometric analysis. FIG. 2A depicts a representative flow cytometry image of pro-B cell (B220^+ CD43^+) and pre-B cell (B220^+ CD43^−) populations.

thymic T cells = assay: Thymic T cell development by flow cytometry in treated NZB/W mice; conditions: 16 weeks of treatment
Method: as §1
A single-cell suspension was obtained from the thymuses and spleens of treated NZB/W mice at 38 weeks-of-age. Briefly, the thymus was removed from each NZB/W mouse and dissociated across a sterile wire mesh in a petri dish containing ice-cold RPMI 1640 medium (Thermo Scientific). RBCs were lysed using RBC lysis buffer and cells were pelleted and washed with PBS. Splenocytes were stained with APC-conjugated CD3, FITC-conjugated CD4, eFluor450 (eF450)-conjugated CD8a, PerCP-CY5.5-conjugated CD25, and PE-conjugated Foxp3. Thymocytes were stained with APC-CD3, FITC-CD4, and PE-CD8 anti-mouse mAbs (eBioscience, San Diego, Calif., USA). Fluorescence was measured using a FACScan flow cytometer and data was analyzed by FlowJo software.
FIG. 4A depicts representative flow cytometry images of thymocytes gated on CD3 and labeled with CD4 and CD8.

[2] = system: sera anti-dsDNA, IgG, IgG2a, IgG2b, IgM; assay: Sera anti-dsDNA and Ig isotype levels by ELISA in treated NZB/W mice
Method: as §1
Sera were collected prior to initiation of treatment at 22 weeks-of-age and every 4 weeks until euthanization. The mice were anesthetized using isoflurane (Piramal Healthcare, Mumbai, Maharashtra, India) and bled from the retro-orbital sinus. Blood was allowed to clot for 2 hours and then centrifuged for 15 min at 10,000×g. The levels of sera antibodies to dsDNA were measured by ELISA. Sera samples were added to the plate at a 1:100 dilution, followed by a two-fold serial dilution. The plate was read at 380 nm on a Spectramax 340PC microplate spectrophotometer (Molecular Devices, Sunnyvale, Calif., USA). A final dilution of 1:800 was reported.

sera TGF-β and IL-1β = assay: Sera IL-1β and TGF-β levels by ELISA in treated NZB/W mice
Method: as §1
IL-1β and TGF-β levels were measured from the sera by ELISA according to the manufacturer's protocol (eBioscience, San Diego, Calif., USA). The plate was read at 450 nm on a microplate spectrophotometer.
IL-1β and TGF-β levels in the sera of NZB/W mice were measured every 4 weeks starting from 22 weeks until euthanization at 38 weeks-of-age (FIG. 8 A-B). At 22 weeks-of-age there were no significant differences in cytokine levels amongst the three groups. As the NZB/W mice aged, sera levels of TGF-β decreased whereas levels of IL-1β increased (FIG. 8 A-B).

[3] = both high (20 mg/kg) and low (5 mg/kg) dose
[4] = i.p. 5 days/week, 22 to 38 weeks-of-age, 5 or 20 mg/kg
[5] = NZB/W mice, 5 and 20 mg/kg, dose-dependent

For `O=C(NO)c1cnc(NC2(c3ccccc3)CC2)nc1` [ACY-738], the “percentage of pre-B cells in fraction D” value [1, 3] was “significant increase”, the “percentage of pre-B cells in fraction E” value [1, 3] was “significant increase” and the “pre-B cells in fraction F” value [1, 3] was “decrease”. For the same molecule, the “pre-B cell population (B220+CD43-) in bone marrow” value ([1]; i.p. 5 days/week, 22 to 38 weeks-of-age, 5 and 20 mg/kg) was “significantly decreased in a dose-dependent manner”, the “percentage of pro-B cells in fraction A” value [1, 4] was “significantly increased” and the “percentage of pro-B cells in fraction C” value [1, 4] was “significantly increased”. The “percentage of pro-B cells (B220+CD43+) in bone marrow” value ([1]; i.p. 5 days/week, 22 to 38 weeks-of-age, 5 or 20 mg/kg, vs vehicle) was “not significantly altered”, the “percentage of DN (CD3+CD4-CD8-) thymic T cells” value (thymic T cells; NZB/W mice at 38 weeks-of-age, 5 and 20 mg/kg) was “decreased the percentage of DN T cells in a dose-dependent manner; also recorded: reduced” and the “percentage of CD3+CD4+CD8- single positive thymic T cells” value (thymic T cells; NZB/W mice at 38 weeks-of-age) was “substantial decrease”. For the same molecule, the “percentage of CD3+CD4-CD8+ single positive thymic T cells” value (thymic T cells; NZB/W mice at 38 weeks-of-age) was “substantial decrease”, the “double positive (CD3+CD4+CD8+) thymic T cell numbers” value (thymic T cells; NZB/W mice, 5 and 20 mg/kg) was “increased in a dose-dependent manner” and the “sera IgG2b level” value ([2]; NZB/W mice at 38 weeks-of-age) was “significantly increased”. For the same molecule, the “sera total IgM level” value ([2]; NZB/W mice at 38 weeks-of-age) was “slightly increased; also recorded: no effect”, the “sera anti-dsDNA” value ([2]; NZB/W mice, 5 mg/kg, vs vehicle control, p<0.05) was “significant decrease” and the “sera anti-dsDNA” value ([2]; NZB/W mice, 20 mg/kg (high dose), 38 weeks-of-age, 16 weeks of treatment, 20 mg/kg) was “prevent an increase in anti-dsDNA; also recorded: more pronounced”. The “sera IgG2a level” value [2, 5] was “significantly decreased”, the “sera total IgG level” value [2, 5] was “significantly decreased” and the “sera IL-1β level” value (sera TGF-β and IL-1β; 38-week-old NZB/W mice, low and high dose, levels rise with age) was “significantly decreased; also recorded: attenuated the increase”. The “sera TGF-β level” value (sera TGF-β and IL-1β; NZB/W mice, 22 to 38 weeks-of-age, 5 and 20 mg/kg, levels fall in vehicle mice with age) was “reverse this trend in a dose-dependent manner; also recorded: attenuated the reduction”.
